The values below come from patent US12258328B2, “6-membered heteroaryl-containing aminopyridine compounds as EGFR inhibitors” (YUHAN CORPORATION, priority 2021, dated 2025).

Read-outs that look alike come from different tables or passages of the source.

Assay [1] deals with EGFR del19/C797S (Homo sapiens, UniProt P00533, C797S/DEL746-750). In words: Biochemical EGFR kinase assay (Lance Ultra TR-FRET), double mutant del19/C797S. As to the method: (§1) Biochemical EGFR kinase assays were conducted using Lance Ultra time-resolved fluorescence resonance energy transfer (TR-FRET) technology from Perkin-Elmer. Compounds of the invention were initially diluted to 20 mM in 100% DMSO for storage and made into kinase buffer solution to create a compound concentration ranging from 0.003 μM and 10 μM.
(§2) Each kinase reactions were incubated at room temperature for 1 hour and then stopped by the addition of 4 μL of stop solution (10 mM EDTA). The specific Europium-labeled-anti-phosphopeptide antibody (PerkinElmer, AD0069) diluted in LANCE detection buffer was then added to a final concentration of 2 nM. After 60 minutes incubation at room temperature the LANCE signal was measured on an EnVision Multilabel Reader (Perkin-Elmer). Excitation wavelength was set at 320 nm and emission monitored at 615 nm (donor) and 665 nm (acceptor). The IC50 values were determined using GraphPad prism software (GraphPad Software, Inc., San Diego, CA, USA).

Assay [2] has as its target EGFR del19/T790M/C797S (Homo sapiens, UniProt P00533, C797S/DEL746-750/T790M). Kind of assay: Biochemical EGFR kinase assay (Lance Ultra TR-FRET), triple mutant del19/T790M/C797S. As to the method: as §1, §2
In general terms: In TR-FRET formats the signal depends on donor and acceptor labels being close together.

Assay [3] addresses EGFR L858R/T790M/C797S (Homo sapiens, UniProt P00533, C797S/L858R/T790M). Kind of assay: Biochemical EGFR kinase assay (Lance Ultra TR-FRET), triple mutant L858R/T790M/C797S. As to the method:
as §1, §2

Assay [4] concerns the target EGFR L858R/C797S (Homo sapiens, UniProt P00533, C797S/L858R). Kind of assay: Biochemical EGFR kinase assay (Lance Ultra TR-FRET), double mutant L858R/C797S. As for the experimental part: as §1, §2
Assay [5] has as its target EGFR wildtype (Homo sapiens, UniProt P00533). In words: Biochemical EGFR kinase assay (Lance Ultra TR-FRET), wildtype. As for the experimental part:
as §1, §2

Setting [6] is: ATP at Km, read-out: IC50 del19/C797S, Km ATP.
Setting [7] is: ATP at Km, read-out: IC50 del19/T790M/C797S, Km ATP.
The mark [8] stands for this setting: ATP at Km, read-out: IC50 L858R/T790M/C797S, Km ATP.
The mark [9] stands for this setting: ATP at Km, read-out: IC50 L858R/C797S, Km ATP.
Where [10] appears, read: ATP at Km, read-out: IC50 WT, Km ATP.
Setting [11] is: IC50 L858R/T790M/C797S, 100 μM ATP.
[12] abbreviates: IC50 del19/C797S (nM) 100 μM ATP, 100 μM ATP.
The mark [13] stands for this setting: Km ATP, read-out: IC50 del19/C797S (nM) Km ATP.
[14] abbreviates: IC50 del19/T790M/C797S (nM) 100 μM ATP, 100 μM ATP.
[15] abbreviates: IC50 L858R/T790M/C797S (nM) 100 μM ATP, 100 μM ATP.
The mark [16] stands for this setting: Km ATP, read-out: IC50 L858R/T790M/C797S (nM) Km ATP.
The mark [17] stands for this setting: IC50 L858R/C797S (nM) 100 μM ATP, 100 μM ATP.
The mark [18] stands for this setting: Km ATP, read-out: IC50 L858R/C797S (nM) Km ATP.
Where [19] appears, read: IC50 WT (nM) 100 μM ATP, 100 μM ATP.
The mark [20] stands for this setting: Km ATP, read-out: IC50 WT (nM) Km ATP.
The mark [21] stands for this setting: Km ATP, read-out: IC50 del19/T790M/C797S (nM) Km ATP.

EGFR del19/C797S, sequence (P00533 with tags, fused parts or gaps DEL746-750/C797S): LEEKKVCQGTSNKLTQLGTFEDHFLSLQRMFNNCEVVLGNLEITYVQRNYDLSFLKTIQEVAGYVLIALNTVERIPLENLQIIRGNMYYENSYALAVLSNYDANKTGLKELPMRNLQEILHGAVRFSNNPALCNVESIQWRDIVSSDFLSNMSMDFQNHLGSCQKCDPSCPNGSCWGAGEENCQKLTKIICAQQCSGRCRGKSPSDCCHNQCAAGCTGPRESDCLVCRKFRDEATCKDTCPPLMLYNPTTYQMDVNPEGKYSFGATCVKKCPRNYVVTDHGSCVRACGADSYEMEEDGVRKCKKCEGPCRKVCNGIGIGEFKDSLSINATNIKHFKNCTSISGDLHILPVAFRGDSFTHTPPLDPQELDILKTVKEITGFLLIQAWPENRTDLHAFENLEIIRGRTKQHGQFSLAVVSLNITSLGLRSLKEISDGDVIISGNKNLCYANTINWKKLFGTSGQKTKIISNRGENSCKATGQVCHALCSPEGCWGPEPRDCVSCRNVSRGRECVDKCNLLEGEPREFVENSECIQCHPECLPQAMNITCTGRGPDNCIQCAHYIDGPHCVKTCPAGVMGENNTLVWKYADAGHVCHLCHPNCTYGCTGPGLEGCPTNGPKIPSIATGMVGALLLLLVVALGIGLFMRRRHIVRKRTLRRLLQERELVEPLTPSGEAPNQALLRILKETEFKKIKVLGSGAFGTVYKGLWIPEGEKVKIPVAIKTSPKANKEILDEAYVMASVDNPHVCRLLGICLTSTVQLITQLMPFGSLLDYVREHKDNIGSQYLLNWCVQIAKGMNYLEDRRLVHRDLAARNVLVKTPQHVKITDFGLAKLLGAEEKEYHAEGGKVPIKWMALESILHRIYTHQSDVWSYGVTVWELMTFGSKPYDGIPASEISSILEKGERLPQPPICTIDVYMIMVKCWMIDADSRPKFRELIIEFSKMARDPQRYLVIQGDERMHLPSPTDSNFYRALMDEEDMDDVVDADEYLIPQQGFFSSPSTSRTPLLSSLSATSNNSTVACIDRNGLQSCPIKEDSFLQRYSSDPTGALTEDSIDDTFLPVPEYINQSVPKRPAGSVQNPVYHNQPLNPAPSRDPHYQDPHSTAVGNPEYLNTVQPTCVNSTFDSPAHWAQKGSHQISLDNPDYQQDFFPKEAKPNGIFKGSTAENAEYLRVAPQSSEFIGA
EGFR L858R/C797S, sequence (P00533 25-1210 C797S/L858R): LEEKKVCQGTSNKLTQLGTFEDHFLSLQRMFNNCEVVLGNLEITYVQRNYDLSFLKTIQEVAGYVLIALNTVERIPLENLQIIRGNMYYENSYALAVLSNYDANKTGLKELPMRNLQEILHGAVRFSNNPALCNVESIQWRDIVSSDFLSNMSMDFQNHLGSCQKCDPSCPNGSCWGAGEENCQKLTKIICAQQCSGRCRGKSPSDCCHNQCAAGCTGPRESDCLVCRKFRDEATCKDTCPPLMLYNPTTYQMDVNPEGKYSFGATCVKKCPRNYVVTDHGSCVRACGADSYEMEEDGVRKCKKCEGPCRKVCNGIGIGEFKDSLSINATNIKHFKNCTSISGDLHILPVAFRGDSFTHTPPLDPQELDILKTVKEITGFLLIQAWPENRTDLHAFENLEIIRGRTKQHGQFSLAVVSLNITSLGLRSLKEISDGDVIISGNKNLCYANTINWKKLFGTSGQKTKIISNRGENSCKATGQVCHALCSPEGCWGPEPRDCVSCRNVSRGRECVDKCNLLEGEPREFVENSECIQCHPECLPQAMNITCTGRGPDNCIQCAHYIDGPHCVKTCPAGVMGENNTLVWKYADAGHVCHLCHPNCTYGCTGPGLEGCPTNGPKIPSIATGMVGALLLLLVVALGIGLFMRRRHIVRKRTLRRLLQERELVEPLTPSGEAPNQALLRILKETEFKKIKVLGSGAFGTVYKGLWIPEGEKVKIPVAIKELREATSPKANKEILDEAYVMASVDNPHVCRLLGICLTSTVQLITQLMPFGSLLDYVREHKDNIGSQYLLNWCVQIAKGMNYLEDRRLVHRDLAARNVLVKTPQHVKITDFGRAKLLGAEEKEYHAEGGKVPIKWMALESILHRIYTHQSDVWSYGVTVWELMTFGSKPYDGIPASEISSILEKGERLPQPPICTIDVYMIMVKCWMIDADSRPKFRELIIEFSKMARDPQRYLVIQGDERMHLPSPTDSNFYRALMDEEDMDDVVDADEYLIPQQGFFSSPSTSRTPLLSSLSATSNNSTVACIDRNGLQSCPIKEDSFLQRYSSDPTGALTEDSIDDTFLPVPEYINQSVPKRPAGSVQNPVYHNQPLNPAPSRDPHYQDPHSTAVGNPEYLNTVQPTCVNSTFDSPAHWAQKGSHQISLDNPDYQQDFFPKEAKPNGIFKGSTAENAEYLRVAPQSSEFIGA
EGFR wildtype, sequence (P00533 25-1210): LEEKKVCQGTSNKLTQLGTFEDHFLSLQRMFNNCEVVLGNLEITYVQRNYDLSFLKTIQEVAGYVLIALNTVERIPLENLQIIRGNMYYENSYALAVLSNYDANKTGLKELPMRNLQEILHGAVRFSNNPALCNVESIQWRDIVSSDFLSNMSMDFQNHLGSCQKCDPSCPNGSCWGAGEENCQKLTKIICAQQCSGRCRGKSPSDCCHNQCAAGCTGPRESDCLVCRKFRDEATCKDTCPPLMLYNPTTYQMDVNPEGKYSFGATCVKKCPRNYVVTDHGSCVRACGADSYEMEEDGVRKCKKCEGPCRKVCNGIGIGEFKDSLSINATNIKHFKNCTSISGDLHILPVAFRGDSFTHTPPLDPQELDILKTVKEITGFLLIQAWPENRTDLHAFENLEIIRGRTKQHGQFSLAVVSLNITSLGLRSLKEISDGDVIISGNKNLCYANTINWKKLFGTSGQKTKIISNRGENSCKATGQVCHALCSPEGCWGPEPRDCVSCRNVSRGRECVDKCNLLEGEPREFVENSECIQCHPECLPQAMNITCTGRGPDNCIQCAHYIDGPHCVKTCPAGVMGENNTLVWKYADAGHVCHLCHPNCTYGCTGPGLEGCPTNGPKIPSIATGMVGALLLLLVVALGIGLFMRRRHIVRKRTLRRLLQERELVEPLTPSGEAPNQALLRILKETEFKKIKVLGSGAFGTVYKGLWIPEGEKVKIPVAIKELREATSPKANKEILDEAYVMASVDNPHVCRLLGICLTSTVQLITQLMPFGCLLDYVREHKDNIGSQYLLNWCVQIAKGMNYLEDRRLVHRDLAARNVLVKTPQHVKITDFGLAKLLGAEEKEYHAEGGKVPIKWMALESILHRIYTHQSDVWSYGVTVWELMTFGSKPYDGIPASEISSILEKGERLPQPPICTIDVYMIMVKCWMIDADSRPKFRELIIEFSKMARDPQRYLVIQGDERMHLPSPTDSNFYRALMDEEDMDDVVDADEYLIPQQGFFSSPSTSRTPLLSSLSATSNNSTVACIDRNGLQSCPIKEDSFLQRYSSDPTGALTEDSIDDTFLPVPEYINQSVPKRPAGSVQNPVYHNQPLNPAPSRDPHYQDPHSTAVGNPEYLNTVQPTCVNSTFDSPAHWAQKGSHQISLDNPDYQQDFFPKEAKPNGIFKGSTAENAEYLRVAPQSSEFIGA
EGFR del19/T790M/C797S, sequence (P00533 with tags, fused parts or gaps DEL746-750/T790M/C797S): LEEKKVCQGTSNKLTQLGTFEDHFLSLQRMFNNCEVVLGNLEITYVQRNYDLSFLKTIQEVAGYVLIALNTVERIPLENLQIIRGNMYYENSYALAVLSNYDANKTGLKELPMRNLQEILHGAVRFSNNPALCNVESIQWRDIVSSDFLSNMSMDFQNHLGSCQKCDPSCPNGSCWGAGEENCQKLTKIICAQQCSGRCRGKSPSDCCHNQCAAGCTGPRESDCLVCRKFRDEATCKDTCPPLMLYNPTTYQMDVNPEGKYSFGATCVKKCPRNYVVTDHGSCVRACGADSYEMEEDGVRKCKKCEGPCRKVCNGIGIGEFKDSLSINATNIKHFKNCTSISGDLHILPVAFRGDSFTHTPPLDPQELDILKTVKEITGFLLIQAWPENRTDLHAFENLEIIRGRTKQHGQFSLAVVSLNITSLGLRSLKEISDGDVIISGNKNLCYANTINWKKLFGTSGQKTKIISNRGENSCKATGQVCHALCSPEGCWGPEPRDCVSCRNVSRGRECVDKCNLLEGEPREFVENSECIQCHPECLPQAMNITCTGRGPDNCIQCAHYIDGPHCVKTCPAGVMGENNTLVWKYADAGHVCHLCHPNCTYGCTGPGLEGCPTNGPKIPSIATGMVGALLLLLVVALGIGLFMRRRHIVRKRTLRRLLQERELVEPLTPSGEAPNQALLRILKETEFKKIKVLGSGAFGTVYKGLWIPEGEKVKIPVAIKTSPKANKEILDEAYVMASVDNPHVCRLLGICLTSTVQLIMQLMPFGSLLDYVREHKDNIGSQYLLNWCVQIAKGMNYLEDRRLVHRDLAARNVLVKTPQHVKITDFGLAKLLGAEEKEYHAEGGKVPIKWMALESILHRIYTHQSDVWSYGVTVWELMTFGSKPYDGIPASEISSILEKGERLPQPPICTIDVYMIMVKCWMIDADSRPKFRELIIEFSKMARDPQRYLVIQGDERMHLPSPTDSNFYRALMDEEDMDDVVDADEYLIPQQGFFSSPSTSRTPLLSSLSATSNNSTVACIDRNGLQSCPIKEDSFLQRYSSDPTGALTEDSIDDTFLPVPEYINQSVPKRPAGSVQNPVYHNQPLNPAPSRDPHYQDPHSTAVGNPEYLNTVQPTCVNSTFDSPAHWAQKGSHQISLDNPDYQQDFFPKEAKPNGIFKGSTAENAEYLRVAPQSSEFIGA

As for `CC(C)(O)c1ccc(-c2cnc(Nc3ccnc(-c4cnn(S(=O)(=O)C5CC5)c4)n3)cc2NC2CCC(F)CC2)nc1` (centres unmarked) [Example 174, 2-(6′-((2-(1-(Cyclopropylsulfonyl)-1H-pyrazol-4-yl)pyrimidin-4-yl)amino)-4′-((4-fluorocyclohexyl)amino)-[2,3′-bipyridin]-5-yl)propan-2-ol], the IC50 in assay [1] (setting [6]) was 7.7 nM; in assay [2] (setting [7]), 2.5 nM; in assay [3] (setting [8]), 1.1 nM; in assay [4] (setting [9]) it was 1.8 nM; in assay [5] (setting [10]), 23.4 nM.
`CC(C)(F)c1ccc(-c2cnc(Nc3ccnc(-c4cnn(S(=O)(=O)C5CC5)c4)n3)cc2N[C@H]2CC[C@@H](CO)CC2)nc1` [Example 235, ((1s,4s)-4-((6′-((2-(1-(Cyclopropylsulfonyl)-1H-pyrazol-4-yl)pyrimidin-4-yl)amino)-5-(2-fluoropropan-2-yl)-[2,3′-bipyridin]-4′-yl)amino)cyclohexyl)methanol]: the IC50 was 3.1 nM in assay [1] (setting [6]); 1 nM in assay [2] (setting [7]); 0.8 nM in assay [3] (setting [8]); 2.7 nM in assay [3] (setting [11]); 1 nM in assay [4] (setting [9]); 8.1 nM in assay [4] (IC50 L858R/C797S, 100 μM ATP). In addition, the IC50 came out at 4.9 nM in assay [5] (setting [10]) and 692 nM in assay [5] (IC50 WT, 100 μM ATP).
Regarding `CN1CCN(Cc2ccc(-c3cnc(Nc4ccnc(-c5cnn(S(=O)(=O)C6CC6)c5)n4)cc3N[C@H]3CC[C@](O)(CO)CC3)nc2)CC1` [Example 11, (1s,4s)-4-((6′-((2-(1-(Cyclopropylsulfonyl)-1H-pyrazol-4-yl)pyrimidin-4-yl)amino)-5-((4-methylpiperazin-1-yl)methyl)-[2,3′-bipyridin]-4′-yl)amino)-1-(hydroxymethyl)cyclohexan-1-ol], the IC50 in assay [1] (setting [12]) was 0.4 nM; in assay [1] (setting [13]), 0.2 nM; in assay [2] (setting [14]) it was 0.1 nM; in assay [3] (setting [15]), 0.2 nM; in assay [3] (setting [16]), 0.1 nM; in assay [4] (setting [17]), 2.1 nM. Besides, the IC50 worked out at 0.4 nM in assay [4] (setting [18]), 586 nM in assay [5] (setting [19]) and 1.4 nM in assay [5] (setting [20]).
Take `CN(C)CCOc1cnc(-c2cnc(Nc3ccnc(-c4cnn(S(=O)(=O)C5CC5)c4)n3)cc2N[C@H]2CC[C@@H](CO)CC2)cn1` [Example 116, ((1s,4s)-4-((2-((2-(1-(Cyclopropylsulfonyl)-1H-pyrazol-4-yl)pyrimidin-4-yl)amino)-5-(5-(2-(dimethylamino)ethoxy)pyrazin-2-yl)pyridin-4-yl)amino)cyclohexyl)methanol]: the IC50 worked out at 0.1 nM in assay [1] (setting [12]); 0.1 nM in assay [1] (setting [13]); 0.1 nM in assay [2] (setting [14]); 0.1 nM in assay [2] (setting [21]); 0.04 nM in assay [3] (setting [15]); 0.04 nM in assay [3] (setting [16]). Moreover, the IC50 is 0.3 nM in assay [4] (setting [17]), 0.1 nM in assay [4] (setting [18]), 384 nM in assay [5] (setting [19]) and 0.4 nM in assay [5] (setting [20]).
`CN1CCC(Oc2ccc(-c3cnc(Nc4ccnc(-c5cnn(S(=O)(=O)C6CC6)c5)n4)cc3N[C@H]3CCC[C@H](CO)C3)nc2)CC1` [Example 253, ((1S,3S)-3-((6′-((2-(1-(Cyclopropylsulfonyl)-1H-pyrazol-4-yl)pyrimidin-4-yl)amino)-5-((1-methylpiperidin-4-yl)oxy)-[2,3′-bipyridin]-4′-yl)amino)cyclohexyl)methanol]: the IC50 in assay [1] (setting [6]) came to 0.4 nM; in assay [2] (setting [7]), 0.7 nM; in assay [3] (setting [8]), 0.4 nM; in assay [4] (setting [9]), 0.2 nM; in assay [5] (setting [10]), 1 nM.
For `CC(C)(O)c1cc(-c2cnc(Nc3ccnc(-c4cnn(S(=O)(=O)C5CC5)c4)n3)cc2N[C@H]2CC[C@@H](CO)CC2)ncc1F` [Example 105, 2-(6′-((2-(1-(Cyclopropylsulfonyl)-1H-pyrazol-4-yl)pyrimidin-4-yl)amino)-5-fluoro-4′-(((1s,4s)-4-(hydroxymethyl)cyclohexyl)amino)-[2,3′-bipyridin]-4-yl)propan-2-ol], the IC50 in assay [1] (setting [12]) stood at 3.9 nM; in assay [1] (setting [13]), 3 nM; in assay [2] (setting [14]) it was 3.2 nM; in assay [2] (setting [21]) it was 2.1 nM; in assay [3] (setting [15]) it was 1.2 nM; in assay [4] (setting [17]), 5.4 nM. In addition, the figures for the IC50 in assay [4] (setting [18]), in assay [5] (setting [19]) and in assay [5] (setting [20]) were 0.6 nM, 787 nM and 5.3 nM, respectively.
Turning to `CC(C)Nc1cc(Nc2ccnc(-c3cnn(S(=O)(=O)C4CC4)c3)n2)ncc1-c1ccc(C(O)C(F)(F)F)cn1` (centres unmarked) [Example 294, 1-(6′-((2-(1-(Cyclopropylsulfonyl)-1H-pyrazol-4-yl)pyrimidin-4-yl)amino)-4′-(isopropylamino)-[2,3′-bipyridin]-5-yl)-2,2,2-trifluoroethan-1-ol], the IC50 in assay [1] (setting [6]) was 60.8 nM; in assay [2] (setting [7]) it was 9.8 nM; in assay [3] (setting [8]) it was 2.3 nM; in assay [4] (setting [9]), 38.5 nM; in assay [5] (setting [10]), 28 nM.
The like results for `CC(C)(O)c1ccc(-c2cnc(Nc3ccnc(-c4cnn(S(=O)(=O)C5CC5)c4)n3)cc2N[C@H]2CC[C@@H](F)CC2)nc1` [Example 173, 2-(6′-((2-(1-(Cyclopropylsulfonyl)-1H-pyrazol-4-yl)pyrimidin-4-yl)amino)-4′-(((1s,4s)-4-fluorocyclohexyl)amino)-[2,3′-bipyridin]-5-yl)propan-2-ol] were, in that order, 7.9 nM, 1.8 nM, 0.9 nM, 1.6 nM and 23.2 nM.
As for `CC(C)(O)[C@H]1CC[C@@H](Nc2cc(Nc3ccnc(-c4cnn(S(=O)(=O)C5CC5)c4)n3)ncc2-c2ccc(S(=O)(=O)N3CCOCC3)cn2)CC1` [Example 184, 2-((1s,4s)-4-((6′-((2-(1-(Cyclopropylsulfonyl)-1H-pyrazol-4-yl)pyrimidin-4-yl)amino)-5-(morpholinosulfonyl)-[2,3′-bipyridin]-4′-yl)amino)cyclohexyl)propan-2-ol], the IC50 in assay [1] (setting [6]) came out at 2.7 nM; in assay [1] (IC50 del19/C797S, 100 μM ATP), 12.2 nM; in assay [2] (setting [7]), 9.1 nM; in assay [2] (IC50 del19/T790M/C797S, 100 μM ATP), 2.8 nM; in assay [3] (setting [11]) it was 0.8 nM; in assay [4] (setting [9]), 2.2 nM. The IC50 in assay [4] (IC50 L858R/C797S, 100 μM ATP) was 12.9 nM; in assay [5] (setting [10]), 15.2 nM; in assay [5] (IC50 WT, 100 μM ATP), more than 10000 nM.
`CN(C)c1ccc(-c2cnc(Nc3ccnc(-c4cnn(S(=O)(=O)C5CC5)c4)n3)cc2N[C@H]2CC[C@@](C)(O)CC2)nc1` [Example 40, (1s,4s)-4-((6′-((2-(1-(Cyclopropylsulfonyl)-1H-pyrazol-4-yl)pyrimidin-4-yl)amino)-5-(dimethylamino)-[2,3′-bipyridin]-4′-yl)amino)-1-methylcyclohexan-1-ol]: the IC50 in assay [1] (setting [12]) came out at 3.2 nM; in assay [1] (setting [13]) it was 2.3 nM; in assay [2] (setting [14]), 2.1 nM; in assay [2] (setting [21]) it was 0.7 nM; in assay [3] (setting [15]), 1.7 nM; in assay [3] (setting [16]) it was 0.5 nM. Moreover, the IC50 came out at 7.7 nM in assay [4] (setting [17]), 1.7 nM in assay [4] (setting [18]), 1440 nM in assay [5] (setting [19]) and 5 nM in assay [5] (setting [20]).
On to `CN(C)S(=O)(=O)n1cc(-c2nccc(Nc3cc(NC4CCC(C)(O)CC4)c(-c4ccc(C(O)C(F)(F)F)cn4)cn3)n2)cn1` (centres unmarked) [Example 297, 4-(4-((4′-(((1s,4s)-4-Hydroxy-4-methylcyclohexyl)amino)-5-(2,2,2-trifluoro-1-hydroxyethyl)-[2,3′-bipyridin]-6′-yl)amino)pyrimidin-2-yl)-N,N-dimethyl-1H-pyrazole-1-sulfonamide], for which the IC50 was found to be 4 nM in assay [1] (setting [6]); 1.6 nM in assay [2] (setting [7]); 1.4 nM in assay [3] (setting [8]); 3 nM in assay [4] (setting [9]); 39.9 nM in assay [5] (setting [10]).
